The structures appear in SMILES notation.

Data on 1 compound can be found in article PMC10647589, “Heterogeneous Cellular Response of Primary and Metastatic Human Gastric Adenocarcinoma Cell Lines to Magnoflorine and Its Additive Interaction with Docetaxel” (International Journal of Molecular Sciences, 2023).

What all share (assay): MTT assay (viability; isobolographic analysis)
Format in all cases: cell-based
On the technique in general: Tetrazolium assays rely on reduction of a dye to a coloured formazan, in cell work by metabolically active cells.

One experiment has as its system NCI-N87 human GC cells. Particulars: NCI-N87, 72 h incubation, mean ± SEM. The procedure: (§1) The human GC cells ACC-201, AGS, MKN-74 and NCI-N87 were placed in 96-well plates and allowed to adhere overnight. On the following day, the growth medium was removed, and the cells were treated with a series of tested MGN and DCT dilutions (2.0–75 and 0.0004–0.0404 µg/mL, respectively) for 72 h at 37 °C. […] Subsequently, a solution of MTT (5 mg/mL) was added to each well, and the cells were further incubated for 3 h at 37 °C. Tetrazolium salt was reduced to violet formazan derivatives via the succinate dehydrogenase of metabolically active cells. Insoluble formazan compounds formed inside the cells were extracted with a sodium dodecyl sulfate buffer (10% SDS in 0.01 N HCl) overnight to achieve a quantitative assessment of the amount produced. The absorbance of the samples was measured at 570 nm using Infinite M200 Pro microplate reader (Tecan, Männedorf, Switzerland). Cell viability was presented as a percentage relative to the untreated control cells.
(§2) Interactions between MGN and DCT analyzed after 72 h in four different GC cell lines (ACC-201, AGS, MKN-74 and NCI-N87) were characterized by means of an isobolographic analysis in the MTT assay. The percentage inhibition of cell viability accompanied by the specific concentrations of the tested substances (MGN and DCT) were transferred to the MS Excel spreadsheet, and the data were computed using the log–probit method. Next, the concentration–response effect graphs for the tested drugs (MGN and DCT) were drawn, and the IC50 values for every tested drug were calculated. The cooperative effect of two concentration–response lines was tested for the MGN and DCT combination, as previously described. The calculations of IC50 values (±SEM) were computed with formulas originally derived from the log–probit method and adapted to the in vitro conditions, as described earlier. The concentration–response lines for MGN and DCT were not parallel, and thus, the isobolographic additivity was illustrated graphically as an area bounded by two (upper and lower) lines of additivity. From the experimentally denoted IC50 values for MGN and DCT in the MTT assay, median additive inhibitory concentrations (IC50add) for the mixture (at the fixed ratio of 1:1 of MGN and DCT) in various cell lines (ACC-201, AGS, MKN-74 and NCI-N87) were calculated, as described previously. More information on isobolographic analysis can be found in the literature.

A further experiment concerns MKN-74 human GC cells. Conditions: MKN-74, 72 h incubation, mean ± SEM. The procedure:
as §1, §2

The test system of a further experiment is ACC-201 human GC cells. Conditions: ACC-201, 72 h incubation, mean ± SEM. As for the experimental part:
as §1, §2

Another experiment has as its system AGS human GC cells. Conditions: 72 h incubation, mean ± SEM. The procedure:
as §1, §2

As a reminder, the IC50 is the concentration at which inhibition is half-maximal. For the compound `CC(=O)O[C@@]12CO[C@@H]1C[C@H](O)[C@@]1(C)C(=O)[C@H](O)C3=C(C)[C@@H](OC(=O)[C@H](O)[C@@H](NC(=O)OC(C)(C)C)c4ccccc4)C[C@@](O)([C@@H](OC(=O)c4ccccc4)[C@H]21)C3(C)C` [DCT, docetaxel], the half-inhibitory concentration (IC50) was determined as 9 ± 2.9 ng/mL in the experiment with NCI-N87 human GC cells, 4.9 ± 2.1 ng/mL with MKN-74 human GC cells, 2.8 ± 0.9 ng/mL in the experiment with ACC-201 human GC cells and 2.6 ± 1.2 ng/mL in the experiment on AGS human GC cells.
